Experimental data: patent publication US8273375B2, “Multiparticle pharmaceutical dosage form for a low-soluble active substances and method for producing said pharmaceutical dosage form” (Evonik Roehm GmbH, priority 2004, dated 2012)
Converted amounts (≈) assume the structure as drawn.

Assay: physchem
Settings: for solubility: water
Description: The lipophilic matrix may consist of a single substance, e.g. a lipid, or of a mixture of substances, e.g. a mixture of lipids. In the case of mixtures, the DAB 10 water-solubility properties, the partition coefficients and the HLB values specified below are calculated from the arithmetic mean of the corresponding values of the substances and from their amounts in parts by weight. The substances used here must not be toxic.
The water-solubility of the active substance and the substance or substances forming the lipophilic matrix can be defined as described in DAD 10 German Pharmacopeia 10th ed. with 3rd suppl. 1994, published by Deutscher Apothekerverlag [=German Pharmacologic Publishing House], Stuttgart and by Govi Verlag, Frankfurt am Main, 2nd suppl. 1993, see Section IV “Allgemeine Vorschriften” [=General Methods] on pages 5 and 6, entitled “Löslichkeit und Lösungsmittell” [=Solubility and Solvents]; see also Ph. Eur. 4.07, 2004). The solubility is given here by the number of parts by volume of a solvent needed to dissolve 1 part by weight of the substance, such as a drug. “Low solubility” applies to substances that need 30-100 parts by volume of solvent to dissolve 1 part by weight of the substance or drug in question, while the terms “very low solubility”, “sparingly soluble” and “difficultly soluble” apply to substances that need 100-1000 parts by volume of a solvent to dissolve 1 part by weight of the substance or drug in question.

Water solubility according to DAB 10: parts of water needed to dissolve 1 part of the active substance | solubility | SMILES
at least 10,000 parts of water | 100 µg/mL (≈ 396 µM) | NC(=O)N1c2ccccc2CC(=O)c2ccccc21 [Oxcarbazepine]
at least 1000 parts of water | 1000 µg/mL (≈ 2800 µM) | CN(CCOc1ccc(CC2SC(=O)NC2=O)cc1)c1ccccn1 (stereo not shown) [Rosiglitazone]
